As a reminder, the GI50 is the concentration giving 50% growth inhibition. A higher GI50 goes with less potent growth inhibition. As usually defined, the IC50 is the concentration at which inhibition is half-maximal.

Bounds are passed on as bounds.

For test [1], the system named is MCF-7 cells. Put plainly: Breast cancer cell line proliferation inhibitory activity (CellTiter-Glo 2.0). The test is classed as cell-based. The following applies: Homo sapiens, MCF7, 120 hours. As for the experimental part: In order to evaluate the breast cancer cell line cell proliferation inhibitory activities of Examples according to the present invention, the following experiment was performed. Breast cancer cells of MCF-7 (Korean Cell Line Bank) were planted in a clear bottom white 96-well plate (Corning) so as to be 3×10^3/150 μl/well, and a culture solution comprising the compound continuously diluted in multiples of 3 at 12 concentrations (0.00001-2 mM) and a DMSO control group was added by 0.5 μl/well and treated so that the final concentration was 0.00005-10 μM, and then cultured in a 37° C. CO2 incubator for 120 hours. After 120 hours, the plate treated with the compound is taken out, and CellTiter-Glo® 2.0 Assay (Promega) solution is treated at 150 μl/well and then they mix well. They mix well at room temperature for 10 minutes or so, and the fluorescence is measured with a microplate reader. The data were expressed as a percentage in proportion to the vehicle standard treated cells, the GI50 (nM) values were calculated using GraphPad Prism 8.3.0 (GraphPad software Inc., San Diego), and the results were shown in Table 3 below.
In general terms: ATP-based viability assays read luminescence as a measure of living cells.

Test [2] addresses T1, human GST-HPK1 (1-346) (Homo sapiens, UniProt Q92918).
T1 construct: purified human GST-HPK1 (1-346, Signalchem) enzyme; purchased Signalchem
T1 sequence (Q92918 1-346): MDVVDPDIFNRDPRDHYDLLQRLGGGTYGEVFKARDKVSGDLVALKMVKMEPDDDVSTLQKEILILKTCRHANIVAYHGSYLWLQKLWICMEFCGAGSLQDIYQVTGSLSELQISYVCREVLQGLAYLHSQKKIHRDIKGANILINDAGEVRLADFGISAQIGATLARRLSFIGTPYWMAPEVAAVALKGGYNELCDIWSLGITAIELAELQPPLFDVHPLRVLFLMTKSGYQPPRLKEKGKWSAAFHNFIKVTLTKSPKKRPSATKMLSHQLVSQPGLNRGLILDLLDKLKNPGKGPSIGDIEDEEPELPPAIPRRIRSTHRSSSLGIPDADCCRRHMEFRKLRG
Put plainly: HPK1 enzyme inhibitory ability (ADP-Glo kinase assay). Type of test: biochemical. The following applies: human GST-HPK1 3 ng, ATP 3 uM, 25° C. 2 hours. The method, then:
In order to evaluate the inhibitory activities of the example compounds according to the present invention on the HPK1 (hematopoietic progenitor kinase 1) enzyme, the following experiment was performed. The example compounds were reacted with the purified human GST-HPK1 (1-346, Signalchem) enzyme to evaluate the enzyme inhibitory ability by the following method. As the reaction buffer, a composition of 40 mM Tris-HCl pH 7.4, 20 mM MgCl2, 0.5 mg/mL BSA and 50 uM DTT was used, and reactions of all test matters were performed on the reaction buffer. Upon the test, the human GST-HPK1 (3 ng) enzyme, the purified ATP (3 uM) and a specific substrate solution were reacted at 25° C. for 2 hours, and then the enzyme activity was identified using an in vitro ADP-Glo™ kinase assay (promega). The enzyme activity reaction solution, the ADP-Glo reaction solution and the enzyme ability detection solution were reacted in a ratio of 2:2:1 to measure luminescence. The enzyme activity inhibition degree according to the treatment concentrations of the respective compounds was calculated based on the fluorescence of the enzyme activity of the solvent control group that was not treated with the compound, where the concentration of each compound that inhibited enzyme activity inhibition by 50% was determined as an IC50 (nM) value.
(ADP-Glo turns the ADP formed in a reaction into a luminescent signal.)

Test [3] has as its target T2, human FLT3-ITD enzyme (Homo sapiens, UniProt P36888).
T2 sequence (P36888 1-993): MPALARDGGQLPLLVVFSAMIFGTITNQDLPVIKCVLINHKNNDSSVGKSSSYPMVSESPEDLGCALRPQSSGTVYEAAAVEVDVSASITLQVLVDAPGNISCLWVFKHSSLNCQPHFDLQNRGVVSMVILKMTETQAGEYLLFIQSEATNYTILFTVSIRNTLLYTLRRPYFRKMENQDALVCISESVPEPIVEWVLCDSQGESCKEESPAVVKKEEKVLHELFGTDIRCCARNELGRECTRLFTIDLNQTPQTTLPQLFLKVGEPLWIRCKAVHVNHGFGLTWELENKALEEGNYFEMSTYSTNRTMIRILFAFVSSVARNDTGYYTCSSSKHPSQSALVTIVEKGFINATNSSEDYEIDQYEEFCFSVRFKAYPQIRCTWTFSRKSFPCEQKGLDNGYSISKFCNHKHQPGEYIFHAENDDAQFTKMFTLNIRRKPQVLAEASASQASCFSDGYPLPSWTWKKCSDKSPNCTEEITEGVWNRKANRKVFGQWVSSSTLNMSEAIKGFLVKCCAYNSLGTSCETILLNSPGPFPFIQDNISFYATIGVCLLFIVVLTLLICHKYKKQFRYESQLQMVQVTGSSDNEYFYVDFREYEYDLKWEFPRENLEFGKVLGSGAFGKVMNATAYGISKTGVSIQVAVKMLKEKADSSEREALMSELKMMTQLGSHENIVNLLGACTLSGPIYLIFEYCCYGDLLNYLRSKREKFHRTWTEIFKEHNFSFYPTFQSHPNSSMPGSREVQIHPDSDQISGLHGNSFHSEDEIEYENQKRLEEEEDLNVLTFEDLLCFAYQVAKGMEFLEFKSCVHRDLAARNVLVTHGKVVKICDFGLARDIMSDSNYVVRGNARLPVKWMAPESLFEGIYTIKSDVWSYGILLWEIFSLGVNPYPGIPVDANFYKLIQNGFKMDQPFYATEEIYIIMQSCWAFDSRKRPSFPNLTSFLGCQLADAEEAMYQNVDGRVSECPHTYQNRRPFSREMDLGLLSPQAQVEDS
Kind of test: FLT3 enzyme inhibitory ability (ADP-Glo kinase assay). The test is classed as biochemical. The following applies: human FLT3-ITD enzyme 10 ng, ATP 10 μM, 25° C. 1 hour. As for the experimental part: The inhibitory activities of the example compounds according to the present invention to the FLT3-ITD enzyme were evaluated. Specifically, the compound of the present invention was reacted with a purified human FLT3-ITD enzyme (Signalchem). A composition of 40 mM Tris-HCl pH 7.4, 20 mM MgCl2, 0.5 mg/mL BSA and 50 μM DTT was used as a reaction buffer, and reactions of all test matters were performed on the reaction buffer. Upon the test, human FLT3-ITD enzyme (10 ng), purified ATP (10 μM) and a specific substrate solution were reacted at 25° C. for 1 hour, and then the enzyme activity was identified using an in vitro ADP-Glo™ kinase assay (Promega). The enzyme activity reaction solution, the ADP-Glo reaction solution and the enzyme ability detection solution were reacted in a ratio of 2:2:1, and the activity inhibition degree of the enzyme was measured as luminescence. Using the solvent-treated group that was not treated with the compound as a control group, the enzyme activity inhibition degree according to the treatment concentration of each compound was calculated based on the enzyme activity fluorescence degree, and the concentration of each compound that inhibited 50%, IC50 (nM), was determined using Prism Software (version 5.01, GraphPad).

Turning to `OCCN1CC[C@@H](Oc2cc(Nc3nc(N4N=CCC4c4ccccc4)c4sccc4n3)cc(C3CC3)c2)C1` (stereo partly drawn) [Example 14, 2-((3R)-3-(3-cyclopropyl-5-((4-(5-phenyl-4,5-dihydro-1H-pyrazol-1-yl)thieno[3,2-d]pyrimidin-2-yl)amino)phenoxy)pyrrolidin-1-yl)ethan-1-ol], the GI50 in test [1] is > 500 nM. Moreover, the half-maximal inhibitory concentration (IC50) in test [2] and in test [3] was > 500 nM each time.

On to `COc1cc(Nc2nc(N3N=CCC3c3ccccc3)c3sccc3n2)cc(C(=O)N2CCN(CCO)CC2)c1` (stereo not drawn) [Example 15, (4-(2-hydroxyethyl)piperazin-1-yl)(3-methoxy-5-((4-(5-phenyl-4,5-dihydro-1H-pyrazol-1-yl)thieno[3,2-d]pyrimidin-2-yl)amino)phenyl)methanone], for which the GI50 in test [1] is > 500 nM. The IC50 in test [2] and in test [3] was > 500 nM in each case.

Regarding `CN(C)[C@@H]1CCN(c2cccc(Nc3nc(N4N=CCC4c4ccccc4)c4sccc4n3)c2)C1` (stereo partly drawn) [Example 17, N-(3-((R)-3-(dimethylamino)pyrrolidin-1-yl)phenyl)-4-(5-phenyl-4,5-dihydro-1H-pyrazol-1-yl)thieno[3,2-d]pyrimidin-2-amine], in test [1], the GI50 was > 500 nM. The IC50 in test [2] and in test [3] was > 500 nM throughout.

With `CN(C)[C@H]1CCN(c2cccc(Nc3nc(N4N=CCC4c4ccccc4)c4sccc4n3)c2)C1` (stereo partly drawn) [Example 18, N-(3-((S)-3-(dimethylamino)pyrrolidin-1-yl)phenyl)-4-(5-phenyl-4,5-dihydro-1H-pyrazol-1-yl)thieno[3,2-d]pyrimidin-2-amine], the GI50 in test [1] was > 500 nM. For the same compound, the IC50 in test [2] and in test [3] was > 500 nM in each case.

Consider `COc1cc(Nc2nc(N3OCC[C@@H]3c3ccccc3)c3sccc3n2)ccc1N1CCC(N2CCN(C)CC2)CC1` [Example 58, (R)-N-(3-methoxy-4-(4-(4-methylpiperazin-1-yl)piperidin-1-yl)phenyl)-4-(3-phenylisoxazolidin-2-yl)thieno[3,2-d]pyrimidin-2-amine], for which the GI50 in test [1] is > 500 nM. Besides, the half-inhibitory concentration (IC50) in test [2] and in test [3] was > 500 nM in each case.

Consider `CN1CCN(c2ccc(Nc3nc(N4OCC[C@@H]4c4ccccc4)c4sccc4n3)cc2)CC1` [Example 60, (R)-N-(4-(4-methylpiperazin-1-yl)phenyl)-4-(3-phenylisoxazolidin-2-yl)thieno[3,2-d]pyrimidin-2-amine], for which the GI50 in test [1] was > 500 nM. The IC50 in test [2] and in test [3] was > 500 nM throughout.

For `CN(C)[C@@H]1CCN(c2cccc(Nc3nc(N4OCC[C@H]4c4ccccc4)c4sccc4n3)c2)C1` [Example 61, N-(3-((R)-3-(dimethylamino)pyrrolidin-1-yl)phenyl)-4-((S)-3-phenylisoxazolidin-2-yl)thieno[3,2-d]pyrimidin-2-amine], the GI50 in test [1] was > 500 nM. In addition, the IC50 in test [2] and in test [3] was > 500 nM each time.

`CN(C)[C@H]1CCN(c2cccc(Nc3nc(N4OCC[C@H]4c4ccccc4)c4sccc4n3)c2)C1` [Example 62, N-(3-((S)-3-(dimethylamino)pyrrolidin-1-yl)phenyl)-4-((S)-3-phenylisoxazolidin-2-yl)thieno[3,2-d]pyrimidin-2-amine]: in test [1], the GI50 was > 500 nM. The IC50 in test [2] and in test [3] was > 500 nM throughout.

For `CN(C)[C@@H]1CCN(c2cccc(Nc3nc(N4OCC[C@@H]4c4ccccc4)c4sccc4n3)c2)C1` [Example 63, N-(3-((R)-3-(dimethylamino)pyrrolidin-1-yl)phenyl)-4-((R)-3-phenylisoxazolidin-2-yl)thieno[3,2-d]pyrimidin-2-amine], the GI50 in test [1] is > 500 nM. Also, the IC50 in test [2] and in test [3] was > 500 nM each time.

Regarding `COc1cc(Nc2nc(N3OCC[C@H]3c3ccccc3)c3cc[nH]c3n2)cc(C(=O)N2CCN(CCO)CC2)c1` [Example 94, (S)-(4-(2-hydroxyethyl)piperazin-1-yl)(3-methoxy-5-((4-(3-phenylisoxazolidin-2-yl)-7H-pyrrolo[2,3-d]pyrimidin-2-yl)amino)phenyl)methanone], the IC50 in test [2] and in test [3] was > 500 nM throughout.

As to `COc1ccc2c(c1Nc1nc(N3OCC[C@H]3c3ccccc3)c3cc[nH]c3n1)CCNC2` [Example 113, (S)-6-methoxy-N-(4-(3-phenylisoxazolidin-2-yl)-7H-pyrrolo[2,3-d]pyrimidin-2-yl)-1,2,3,4-tetrahydroisoquinolin-5-amine], the IC50 in test [2] is > 500 nM.

Regarding `COc1ccc2c(c1Nc1nc(N3OCC[C@H]3c3ccccc3)c3cc[nH]c3n1)CCN(C)C2` [Example 114, (S)-6-methoxy-2-methyl-N-(4-(3-phenylisoxazolidin-2-yl)-7H-pyrrolo[2,3-d]pyrimidin-2-yl)-1,2,3,4-tetrahydroisoquinolin-5-amine], the IC50 in test [2] is > 500 nM.

As to `COc1cc2c(cc1Nc1nc(N3OCC[C@H]3c3ccccc3)c3c(C#N)c[nH]c3n1)CN(C1CC1)CC2` [Example 122, (S)-2-((2-cyclopropyl-6-methoxy-1,2,3,4-tetrahydroisoquinolin-7-yl)amino)-4-(3-phenylisoxazolidin-2-yl)-7H-pyrrolo[2,3-d]pyrimidine-5-carbonitrile], the IC50 in test [2] is > 500 nM.

Turning to `FC(F)(F)c1c[nH]c2nc(Nc3ccc4c(c3)CCNC4)nc(N3OCC[C@H]3c3ccccc3)c12` [Example 124, (S)-N-(4-(3-phenylisoxazolidin-2-yl)-5-(trifluoromethyl)-7H-pyrrolo[2,3-d]pyrimidin-2-yl)-1,2,3,4-tetrahydroisoquinolin-6-amine], the IC50 in test [2] was > 500 nM.

Values taken from patent US20220242870A1, “HETEROCYCLE-FUSED PYRIMIDINE DERIVATIVE AND USE THEREOF” (VORONOI Inc., priority 2019, published 2022).
